Measured values published in US20030096020A1, “Novel herbal composition for the management of bronchial asthma and a process of manufacturing the same” (priority 2001, published 2003).

Test system: mast cells
Experiment: Active anaphylaxis method to evaluate mast cell count
Type: in vivo, rat
Conditions: sensitized rats

`C[C@]12C=CC(=O)C=C1CC[C@@H]1[C@@H]2[C@@H](O)C[C@@]2(C)[C@H]1CC[C@]2(O)C(=O)CO` [Standard, Prednisolone] was tested, and the “Degranulation (% mean +/- SEM) of mast cells, 21st day sacrifice, central zone” value (no treatment day 14 to 21, 21st day sacrifice, central zone) was 29.4 ± 7.2 %, the “Degranulation (% mean +/- SEM) of mast cells, 21st day sacrifice, peripheral zone” value (no treatment day 14 to 21, 21st day sacrifice, peripheral zone) was 37.51 ± 8.3 % and the “Degranulation (% mean +/- SEM) of mast cells, 13th day sacrifice, central zone” value (oral treatment day 5 to 13, 13th day sacrifice, central zone) was 8.4 ± 2.0 %. The “Degranulation (% mean +/- SEM) of mast cells, 13th day sacrifice, peripheral zone” value (oral treatment day 5 to 13, 13th day sacrifice, peripheral zone) was 8.7 ± 1.621 %.
